From patent US12479804B2, “Herbicidal compounds” (SYNGENTA CROP PROTECTION AG, priority 2019, dated 2025)

Key:
Test in all cases: Glasshouse herbicidal test, pre- and post-emergence, percentage damage to the plant
Format in all cases: in vivo
[1] = system: Alopecurus myosuroides (ALOMY); settings: 250 g/h, evaluated after 13 days; for ALOMY POST percentage damage caused to the plant (five-point scale): post-emergence; for ALOMY PRE percentage damage caused to the plant (five-point scale): pre-emergence
Method: (§1) Seeds of a variety of test species are sown in standard soil in pots (Lolium perenne (LOLPE), Setaria faberi (SETFA), Alopecurus myosuroides (ALOMY), Echinochloa crus-galli (ECHCG), Avena fatua (AVEFA)). After cultivation for one day (pre-emergence) or after 8 days cultivation (post-emergence) under controlled conditions in a glasshouse (at 24/16° C., day/night; 14 hours light; 65% humidity), the plants are sprayed with an aqueous spray solution derived from the formulation of the technical active ingredient in acetone/water (50:50) solution containing 0.5% Tween 20 (polyoxyethelyene sorbitan monolaurate, CAS RN 9005-64-5). Compounds are applied at 250 g/h. The test plants are then grown in a glasshouse under controlled conditions in a glasshouse (at 24/16° C., day/night; 14 hours light; 65% humidity) and watered twice daily. After 13 days for pre and post-emergence, the test is evaluated for the percentage damage caused to the plant. The biological activities are shown in the following table on a five-point scale (5=80-100%; 4=60-79%; 3=40-59%; 2=20-39%; 1=0-19%).

[2] = system: Avena fatua (AVEFA); settings: 250 g/h, evaluated after 13 days; for AVEFA POST percentage damage caused to the plant (five-point scale): post-emergence; for AVEFA PRE percentage damage caused to the plant (five-point scale): pre-emergence
Method: as §1

[3] = system: Echinochloa crus-galli (ECHCG); settings: 250 g/h, evaluated after 13 days; for ECHCG POST percentage damage caused to the plant (five-point scale): post-emergence; for ECHCG PRE percentage damage caused to the plant (five-point scale): pre-emergence
Method: as §1

[4] = system: Lolium perenne (LOLPE); settings: 250 g/h, evaluated after 13 days; for LOLPE POST percentage damage caused to the plant (five-point scale): post-emergence; for LOLPE PRE percentage damage caused to the plant (five-point scale): pre-emergence
Method: as §1

[5] = system: Setaria faberi (SETFA); settings: 250 g/h, evaluated after 13 days; for SETFA POST percentage damage caused to the plant (five-point scale): post-emergence; for SETFA PRE percentage damage caused to the plant (five-point scale): pre-emergence
Method: as §1

| Compound | ALOMY POST percentage damage caused to the plant (five-point scale) [1] | ALOMY PRE percentage damage caused to the plant (five-point scale) [1] | AVEFA POST percentage damage caused to the plant (five-point scale) [2] | AVEFA PRE percentage damage caused to the plant (five-point scale) [2] | ECHCG POST percentage damage caused to the plant (five-point scale) [3] | ECHCG PRE percentage damage caused to the plant (five-point scale) [3] | LOLPE POST percentage damage caused to the plant (five-point scale) [4] | LOLPE PRE percentage damage caused to the plant (five-point scale) [4] | SETFA POST percentage damage caused to the plant (five-point scale) [5] | SETFA PRE percentage damage caused to the plant (five-point scale) [5] |
| --- | --- | --- | --- | --- | --- | --- | --- | --- | --- | --- |
| CC#Cc1cc(C)c(C2C(=O)CC3(CCC(=O)N(CC(=O)OC)C3)CC2=O)c(C)c1 (stereo not shown) [Compound A12] | 2 (2=20-39%) | 5 (5=80-100%) | 5 (5=80-100%) | 3 (3=40-59%) | 5 (5=80-100%) | 5 (5=80-100%) | 5 (5=80-100%) | 5 (5=80-100%) | 5 (5=80-100%) | 5 (5=80-100%) |
| CC#Cc1cc(C)c(C2C(=O)CC3(CCN4C(=O)CCCC4C3)CC2=O)c(C)c1 (stereo not shown) [Compound A13] | 5 (5=80-100%) | 5 (5=80-100%) | 5 (5=80-100%) | 5 (5=80-100%) | 5 (5=80-100%) | 5 (5=80-100%) | 5 (5=80-100%) | 5 (5=80-100%) | 5 (5=80-100%) | 5 (5=80-100%) |
| CC#Cc1cc(C)c(C2C(=O)CC3(CCN4C(=O)CCC4C3)CC2=O)c(C)c1 (stereo not shown) [Compound A14] | 5 (5=80-100%) | 5 (5=80-100%) | 5 (5=80-100%) | 5 (5=80-100%) | 5 (5=80-100%) | 5 (5=80-100%) | 5 (5=80-100%) | 5 (5=80-100%) | 5 (5=80-100%) | 5 (5=80-100%) |
| CC#Cc1cc(C)c(C2C(=O)CC3(C=CN(C(=O)COC)CC3)CC2=O)c(C)c1 (stereo not shown) [Compound A15] | 5 (5=80-100%) | 5 (5=80-100%) | 5 (5=80-100%) | 5 (5=80-100%) | 5 (5=80-100%) | 5 (5=80-100%) | 5 (5=80-100%) | 5 (5=80-100%) | 5 (5=80-100%) | 5 (5=80-100%) |
| CC#Cc1cc(C)c(C2C(=O)CC3(C=CN(C(=O)c4ccccn4)CC3)CC2=O)c(C)c1 (stereo not shown) [Compound A48] | 5 (5=80-100%) | 5 (5=80-100%) | 5 (5=80-100%) | 5 (5=80-100%) | 5 (5=80-100%) | 5 (5=80-100%) | 5 (5=80-100%) | 5 (5=80-100%) | 5 (5=80-100%) | 5 (5=80-100%) |
| CC#Cc1cc(C)c(C2C(=O)CC3(C=CN(C(=O)C4CC4)CC3)CC2=O)c(C)c1 (stereo not shown) [Compound A49] | 5 (5=80-100%) | 5 (5=80-100%) | 5 (5=80-100%) | 5 (5=80-100%) | 5 (5=80-100%) | 5 (5=80-100%) | 5 (5=80-100%) | 5 (5=80-100%) | 5 (5=80-100%) | 5 (5=80-100%) |
| CC#Cc1cc(C)c(C2C(=O)CC3(C=CN(C(=O)COC(F)F)CC3)CC2=O)c(C)c1 (stereo not shown) [Compound A50] | 5 (5=80-100%) | 5 (5=80-100%) | 5 (5=80-100%) | 5 (5=80-100%) | 5 (5=80-100%) | 5 (5=80-100%) | 5 (5=80-100%) | 5 (5=80-100%) | 5 (5=80-100%) | 5 (5=80-100%) |
| CC#Cc1cc(C)c(C2C(=O)CC3(C=CN(C(=O)CC#N)CC3)CC2=O)c(C)c1 (stereo not shown) [Compound A51] | 5 (5=80-100%) | 5 (5=80-100%) | 5 (5=80-100%) | 5 (5=80-100%) | 5 (5=80-100%) | 5 (5=80-100%) | 5 (5=80-100%) | 5 (5=80-100%) | 5 (5=80-100%) | 5 (5=80-100%) |
| CC#Cc1cc(C)c(C2C(=O)CC3(C=CN(C(=O)NC(C)(C)C)CC3)CC2=O)c(C)c1 (stereo not shown) [Compound A53] | 5 (5=80-100%) | 5 (5=80-100%) | 4 (4=60-79%) | 2 (2=20-39%) | 5 (5=80-100%) | 5 (5=80-100%) | 5 (5=80-100%) | 5 (5=80-100%) | 5 (5=80-100%) | 5 (5=80-100%) |
| CC#Cc1cc(C)c(C2C(=O)CC3(C=CN(C(=O)NC(=O)C(C)(C)C)CC3)CC2=O)c(C)c1 (stereo not shown) [Compound A54] | 5 (5=80-100%) | 5 (5=80-100%) | 5 (5=80-100%) | 5 (5=80-100%) | 5 (5=80-100%) | 5 (5=80-100%) | 5 (5=80-100%) | 5 (5=80-100%) | 5 (5=80-100%) | 5 (5=80-100%) |
